Data reported in article PMC4757856 (Medchemcomm, 2015).

Columns and labels:
PfNMT = molecular target: T1, PfNMT (Plasmodium falciparum, UniProt Q9U419); test: NMT enzyme inhibition assay; format: biochemical; conditions: for LipE: LipE = pKi (PfNMT) - clog P
T1 sequence (Q9U419 1-410): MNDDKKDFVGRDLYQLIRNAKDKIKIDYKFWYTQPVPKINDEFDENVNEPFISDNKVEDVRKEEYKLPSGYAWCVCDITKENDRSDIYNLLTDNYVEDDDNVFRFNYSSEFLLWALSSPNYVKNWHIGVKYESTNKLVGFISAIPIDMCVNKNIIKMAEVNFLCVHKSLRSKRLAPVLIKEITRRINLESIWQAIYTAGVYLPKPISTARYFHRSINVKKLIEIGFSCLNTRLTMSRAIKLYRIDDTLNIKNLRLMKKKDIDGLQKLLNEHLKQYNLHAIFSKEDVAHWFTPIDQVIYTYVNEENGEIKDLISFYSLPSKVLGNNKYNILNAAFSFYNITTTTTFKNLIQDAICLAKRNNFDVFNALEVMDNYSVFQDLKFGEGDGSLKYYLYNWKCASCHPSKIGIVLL

HepG2 cell line = test: HepG2 toxicity assay; format: cell-based, human; conditions: 48 hours, MTS

With `c1ccc(Cc2noc(-c3cccnc3OC3CCNCC3)n2)cc1` [Compound 7] the “fold improvement in enzyme affinity” value (PfNMT; PfNMT, 7 vs. 3) was 10 fold.
For `COc1cccc(Cc2noc(-c3ccccc3OC3CCNCC3)n2)c1` [Compound 18], the LipE (PfNMT) was 3.32.
`Cc1nn(C)c(C)c1Cc1noc(-c2cccnc2OC2CCNCC2)n1` [Compound 25] was tested, and the LD50 (HepG2 cell line) was over 100 µM.
`Cc1nn(C)c(C)c1Cc1noc(-c2cccnc2OC2CCN(C(C)C)CC2)n1` [Compound 28] showed an LD50 (HepG2 cell line) of over 100 µM.
Compound `c1cnc(OC2CCNCC2)c(-c2nc(Cc3cccc4ncccc34)no2)c1` [Compound 30] has a LipE (PfNMT) of 5.63.
